According to patent publication US20240108006A1, “PESTICIDALLY ACTIVE HETEROAROMATIC COMPOUNDS” (SYNGENTA CROP PROTECTION AG, priority 2021, published 2024):

Experiments:
Assay type in all cases: in vivo
Myzus persicae [1] = test: Example B7: Myzus persicae (green peach aphid), intrinsic activity, sucrose solution 24-well; conditions: 120 h, application rate of 12.5 ppm, 5 days after infestation, read-out: control (mortality)
How it was run: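 Compounds from 10,000 ppm DMSO stocks were mixed into sucrose solution in wells at a rate of 12.5 ppm. Aphid-infested pea seedlings were placed on a Parafilm membrane over the solution, so aphids fed through it. Mortality was scored 5 days after infestation.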

Spodoptera littoralis = test: Example B9: Spodoptera littoralis (Egyptian cotton leaf worm), cotton leaf discs, L1 larvae; conditions: foliar, 72 h, application rate of 200 ppm, 3 days after infestation, read-out: control in at least one of the three categories (mortality, anti-feedant effect, or growth inhibition)
How it was run: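 Cotton leaf discs on agar sprayed with aqueous test solutions from 10,000 ppm DMSO stocks, dried, then infested with five L1 larvae. Mortality, anti-feeding and growth inhibition scored against untreated samples 3 days after infestation.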

Euschistus heros = test: Example B3: Euschistus heros (neotropical brown stink bug), soybean leaves, N2 nymphs; conditions: 120 h, application rate of 200 ppm, 5 days after infestation, read-out: control in at least one of the two categories (mortality or growth inhibition)
Protocol: Example B3: Euschistus heros (Neotropical Brown Stink Bug)
Soybean leaves on agar in 24-well microtiter plates were sprayed with aqueous test solutions prepared from 10,000 ppm DMSO stock solutions. After drying the leaves were infested with N2 nymphs. The samples were assessed for mortality and growth inhibition in comparison to untreated samples 5 days after infestation.
(§1) The following compounds gave an effect of at least 80% control in at least one of the two categories (mortality or growth inhibition) at an application rate of 200 ppm: […]

Myzus persicae [2] = test: Example B5: Myzus persicae (green peach aphid), feeding/contact activity; conditions: 144 h, application rate of 200 ppm, 6 days after infestation
Protocol: Example B5: Myzus persicae (Green Peach Aphid):Feeding/Contact Activity
Sunflower leaf discs were placed onto agar in a 24-well microtiter plate and sprayed with aqueous test solutions prepared from 10,000 ppm DMSO stock solutions. After drying, the leaf discs were infested with an aphid population of mixed ages. The samples were assessed for mortality 6 days after infestation.

Diabrotica balteata = test: Example B2: Diabrotica balteata (corn root worm), maize sprouts, L2 larvae; conditions: 96 h, application rate of 200 ppm, 4 days after infestation, read-out: control in at least one of the two categories (mortality or growth inhibition)
Protocol: Example B2: Diabrotica balteata (Corn Root Worm)
Maize sprouts placed onto an agar layer in 24-well microtiter plates were treated with aqueous test solutions prepared from 10,000 ppm DMSO stock solutions by spraying. After drying, the plates were infested with L2 larvae (6 to 10 per well). The samples were assessed for mortality and growth inhibition in comparison to untreated samples 4 days after infestation.
as §1

Chilo suppressalis = test: Example B1: Chilo suppressalis (striped rice stemborer), artificial diet, L2 larvae; conditions: 144 h, application rate of 200 ppm, 6 days after infestation, read-out: control in at least one of the three categories (mortality, anti-feedant effect, or growth inhibition)
How it was run: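 Artificial diet was treated with aqueous test solutions made from 10,000 ppm DMSO stocks, dried, then infested with L2 larvae (6-8 per well). Mortality, anti-feeding effect and growth inhibition were scored against untreated samples 6 days after infestation, and control was counted when any category exceeded untreated.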

Plutella xylostella = test: Example B8: Plutella xylostella (diamond back moth), artificial diet 24-well, eggs; conditions: 192 h, application rate of 200 ppm, 8 days after infestation, read-out: effect in at least one of the two categories (mortality or growth inhibition)
How it was run: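 Artificial diet in 24-well plates treated with aqueous dilutions of DMSO stock (10,000 ppm stock) and dried, then infested with Plutella eggs. Mortality and growth inhibition scored versus untreated samples 8 days after infestation.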

C[C@H](NC(=O)Nc1ccc(C(F)(F)F)nc1Cl)c1ncnn1-c1ncccn1 [Example P18, 1-[2-chloro-6-(trifluoromethyl)-3-pyridyl]-3-[(1S)-1-(2-pyrimidin-2-yl-1,2,4-triazol-3-yl)ethyl]urea]
≥ 80%: mortality at 12.5 ppm (Myzus persicae [1]) | percent control (mortality, anti-feedant effect or growth inhibition) at 200 ppm (Spodoptera littoralis) | percent control (mortality or growth inhibition) at 200 ppm (Euschistus heros)

C[C@@H](c1ncnn1-c1ncccn1)N(C)C(=O)N(C)c1cc(OC(F)(F)C(F)F)c(Cl)cc1Cl [Example P132, 1-[2,4-dichloro-5-(1,1,2,2-tetrafluoroethoxy)phenyl]-1,3-dimethyl-3-[(1S)-1-(2-pyrimidin-2-yl-1,2,4-triazol-3-yl)ethyl]urea]
≥ 80%: mortality at 200 ppm (Myzus persicae [2]) | mortality at 12.5 ppm (Myzus persicae [1]) | percent control (mortality or growth inhibition) at 200 ppm (Diabrotica balteata) | percent control (mortality, anti-feedant effect or growth inhibition) at 200 ppm (Spodoptera littoralis) | percent control (mortality, anti-feedant effect or growth inhibition) at 200 ppm (Chilo suppressalis) | percent effect (mortality or growth inhibition) at 200 ppm (Plutella xylostella)

C[C@H](NC(=O)Nc1cc(C#N)c(Cl)cc1F)c1ncnn1-c1ncccn1 [Example P182, 1-(4-chloro-5-cyano-2-fluoro-phenyl)-3-[(1S)-1-(2-pyrimidin-2-yl-1,2,4-triazol-3-yl)ethyl]urea]
≥ 80%: mortality at 12.5 ppm (Myzus persicae [1]) | percent control (mortality, anti-feedant effect or growth inhibition) at 200 ppm (Spodoptera littoralis) | percent control (mortality, anti-feedant effect or growth inhibition) at 200 ppm (Chilo suppressalis) | percent effect (mortality or growth inhibition) at 200 ppm (Plutella xylostella) | percent control (mortality or growth inhibition) at 200 ppm (Euschistus heros)

C[C@@H](c1ncnn1-c1ncccn1)N(C)C(=O)Nc1cc(OC(F)(F)C(F)F)c(Cl)cc1Cl [Example P133, 3-[2,4-dichloro-5-(1,1,2,2-tetrafluoroethoxy)phenyl]-1-methyl-1-[(1S)-1-(2-pyrimidin-2-yl-1,2,4-triazol-3-yl)ethyl]urea]
≥ 80%: mortality at 200 ppm (Myzus persicae [2]) | mortality at 12.5 ppm (Myzus persicae [1]) | percent control (mortality or growth inhibition) at 200 ppm (Diabrotica balteata) | percent control (mortality, anti-feedant effect or growth inhibition) at 200 ppm (Spodoptera littoralis) | percent control (mortality, anti-feedant effect or growth inhibition) at 200 ppm (Chilo suppressalis) | percent effect (mortality or growth inhibition) at 200 ppm (Plutella xylostella)

C[C@H](NC(=O)Nc1cnc(Br)cc1Br)c1ncnn1-c1ncccn1 [Example P55, 1-(4,6-dibromo-3-pyridyl)-3-[(1S)-1-(2-pyrimidin-2-yl-1,2,4-triazol-3-yl)ethyl]urea]
≥ 80%: mortality at 12.5 ppm (Myzus persicae [1]) | percent control (mortality, anti-feedant effect or growth inhibition) at 200 ppm (Spodoptera littoralis) | percent control (mortality, anti-feedant effect or growth inhibition) at 200 ppm (Chilo suppressalis) | percent effect (mortality or growth inhibition) at 200 ppm (Plutella xylostella) | percent control (mortality or growth inhibition) at 200 ppm (Euschistus heros)

C[C@H](NC(=O)Nc1cc(C#N)c(F)cc1F)c1ncnn1-c1ncccn1 [Example P391, 1-(5-cyano-2,4-difluoro-phenyl)-3-[(1S)-1-(2-pyrimidin-2-yl-1,2,4-triazol-3-yl)ethyl]urea]
≥ 80%: mortality at 12.5 ppm (Myzus persicae [1]) | percent control (mortality, anti-feedant effect or growth inhibition) at 200 ppm (Chilo suppressalis) | percent control (mortality or growth inhibition) at 200 ppm (Euschistus heros)

C[C@H](NC(=O)Nc1cnc(Br)cc1Br)c1ncnn1-c1ccc(C#N)cn1 [Example P255, 1-[(1S)-1-[2-(5-cyano-2-pyridyl)-1,2,4-triazol-3-yl]ethyl]-3-(4,6-dibromo-3-pyridyl)urea]
≥ 80%: percent control (mortality, anti-feedant effect or growth inhibition) at 200 ppm (Spodoptera littoralis) | percent control (mortality, anti-feedant effect or growth inhibition) at 200 ppm (Chilo suppressalis) | percent effect (mortality or growth inhibition) at 200 ppm (Plutella xylostella) | percent control (mortality or growth inhibition) at 200 ppm (Euschistus heros)

C[C@H](NC(=O)Nc1cc(C(F)(F)F)c(Cl)cc1Br)c1nccnc1-c1ccc(C#N)cn1 [Example P246, 1-[2-bromo-4-chloro-5-(trifluoromethyl)phenyl]-3-[(1S)-1-[3-(5-cyano-2-pyridyl)pyrazin-2-yl]ethyl]urea]
≥ 80%: percent control (mortality or growth inhibition) at 200 ppm (Diabrotica balteata) | percent control (mortality, anti-feedant effect or growth inhibition) at 200 ppm (Spodoptera littoralis) | percent control (mortality or growth inhibition) at 200 ppm (Euschistus heros)

C[C@H](NC(=O)N(C)c1cc(OC(F)(F)C(F)F)c(Cl)cc1Cl)c1ncnn1-c1ncccn1 [Example P176, 1-[2,4-dichloro-5-(1,1,2,2-tetrafluoroethoxy)phenyl]-1-methyl-3-[(1S)-1-(2-pyrimidin-2-yl-1,2,4-triazol-3-yl)ethyl]urea]
≥ 80%: mortality at 200 ppm (Myzus persicae [2]) | mortality at 12.5 ppm (Myzus persicae [1]) | percent control (mortality or growth inhibition) at 200 ppm (Diabrotica balteata) | percent control (mortality, anti-feedant effect or growth inhibition) at 200 ppm (Spodoptera littoralis) | percent control (mortality, anti-feedant effect or growth inhibition) at 200 ppm (Chilo suppressalis) | percent effect (mortality or growth inhibition) at 200 ppm (Plutella xylostella)

C[C@H](NC(=O)Nc1ccc(Br)cc1OC(F)F)c1ncnn1-c1ncccn1 [Example P58, 1-[4-bromo-2-(difluoromethoxy)phenyl]-3-[(1S)-1-(2-pyrimidin-2-yl-1,2,4-triazol-3-yl)ethyl]urea]
≥ 80%: mortality at 200 ppm (Myzus persicae [2]) | mortality at 12.5 ppm (Myzus persicae [1]) | percent control (mortality or growth inhibition) at 200 ppm (Diabrotica balteata) | percent control (mortality, anti-feedant effect or growth inhibition) at 200 ppm (Spodoptera littoralis) | percent control (mortality, anti-feedant effect or growth inhibition) at 200 ppm (Chilo suppressalis) | percent effect (mortality or growth inhibition) at 200 ppm (Plutella xylostella)

C[C@H](NC(=O)Nc1cc(OC(F)(F)C(F)F)c(Cl)cc1Cl)c1ncnn1-c1ccc(=O)n(C)n1 [Example P269, 1-[2,4-dichloro-5-(1,1,2,2-tetrafluoroethoxy)phenyl]-3-[(1S)-1-[2-(1-methyl-6-oxo-pyridazin-3-yl)-1,2,4-triazol-3-yl]ethyl]urea]
≥ 80%: mortality at 12.5 ppm (Myzus persicae [1]) | percent control (mortality or growth inhibition) at 200 ppm (Diabrotica balteata) | percent control (mortality, anti-feedant effect or growth inhibition) at 200 ppm (Spodoptera littoralis) | percent control (mortality or growth inhibition) at 200 ppm (Euschistus heros)

C[C@H](NC(=O)Nc1cc(OC(F)(F)C(F)F)c(Cl)cc1Cl)c1ncnn1-c1cnccn1 [Example P278, 1-[2,4-dichloro-5-(1,1,2,2-tetrafluoroethoxy)phenyl]-3-[(1S)-1-(2-pyrazin-2-yl-1,2,4-triazol-3-yl)ethyl]urea]
≥ 80%: mortality at 200 ppm (Myzus persicae [2]) | mortality at 12.5 ppm (Myzus persicae [1]) | percent control (mortality or growth inhibition) at 200 ppm (Diabrotica balteata) | percent control (mortality, anti-feedant effect or growth inhibition) at 200 ppm (Spodoptera littoralis) | percent control (mortality, anti-feedant effect or growth inhibition) at 200 ppm (Chilo suppressalis) | percent effect (mortality or growth inhibition) at 200 ppm (Plutella xylostella)

C[C@H](NC(=O)Nc1ccc(C(F)(F)F)cc1I)c1ncnn1-c1ncccn1 [Example P72, 1-[2-iodo-4-(trifluoromethyl)phenyl]-3-[(1S)-1-(2-pyrimidin-2-yl-1,2,4-triazol-3-yl)ethyl]urea]
≥ 80%: mortality at 12.5 ppm (Myzus persicae [1]) | percent control (mortality, anti-feedant effect or growth inhibition) at 200 ppm (Spodoptera littoralis) | percent control (mortality, anti-feedant effect or growth inhibition) at 200 ppm (Chilo suppressalis) | percent effect (mortality or growth inhibition) at 200 ppm (Plutella xylostella) | percent control (mortality or growth inhibition) at 200 ppm (Euschistus heros)

C[C@H](NC(=O)Nc1cc(C(F)(F)F)c(Br)cc1Br)c1ncnn1-c1ncccn1 [Example P205, 1-[2,4-dibromo-5-(trifluoromethyl)phenyl]-3-[(1S)-1-(2-pyrimidin-2-yl-1,2,4-triazol-3-yl)ethyl]urea]
≥ 80%: mortality at 200 ppm (Myzus persicae [2]) | mortality at 12.5 ppm (Myzus persicae [1]) | percent control (mortality or growth inhibition) at 200 ppm (Diabrotica balteata) | percent control (mortality, anti-feedant effect or growth inhibition) at 200 ppm (Spodoptera littoralis) | percent control (mortality, anti-feedant effect or growth inhibition) at 200 ppm (Chilo suppressalis) | percent effect (mortality or growth inhibition) at 200 ppm (Plutella xylostella)

C[C@H](NC(=O)Nc1cc(OC(F)(F)C(F)F)c(Cl)cc1Cl)c1nccnc1-c1ncccn1 [Example P135, 1-[2,4-dichloro-5-(1,1,2,2-tetrafluoroethoxy)phenyl]-3-[(1S)-1-(3-pyrimidin-2-ylpyrazin-2-yl)ethyl]urea]
≥ 80%: mortality at 200 ppm (Myzus persicae [2]) | mortality at 12.5 ppm (Myzus persicae [1]) | percent control (mortality or growth inhibition) at 200 ppm (Diabrotica balteata) | percent control (mortality, anti-feedant effect or growth inhibition) at 200 ppm (Spodoptera littoralis) | percent control (mortality, anti-feedant effect or growth inhibition) at 200 ppm (Chilo suppressalis) | percent effect (mortality or growth inhibition) at 200 ppm (Plutella xylostella)

C[C@@H](c1ncnn1-c1ncccn1)N1COCN(c2cc(OC(F)(F)C(F)F)c(Cl)cc2Cl)C1=O [Example P137, 3-[2,4-dichloro-5-(1,1,2,2-tetrafluoroethoxy)phenyl]-5-[(1S)-1-(2-pyrimidin-2-yl-1,2,4-triazol-3-yl)ethyl]-1,3,5-oxadiazinan-4-one]
≥ 80%: mortality at 200 ppm (Myzus persicae [2]) | mortality at 12.5 ppm (Myzus persicae [1]) | percent control (mortality or growth inhibition) at 200 ppm (Diabrotica balteata) | percent control (mortality, anti-feedant effect or growth inhibition) at 200 ppm (Spodoptera littoralis) | percent control (mortality, anti-feedant effect or growth inhibition) at 200 ppm (Chilo suppressalis) | percent effect (mortality or growth inhibition) at 200 ppm (Plutella xylostella)
